Laboratory results reported in patent US12162865B2, “Methods of treating cancer” (Epizyme, Inc., priority 2012, dated 2024).
“Also recorded” adds a separate entry of the source. Read-outs that look alike come from different tables or passages of the source.

Tests used:
SMYD2 = SMYD2 (Homo sapiens, UniProt Q9NRG4); test: Histone methyltransferase inhibition, SMYD2; assay type: biochemical
PRMT1 = PRMT1 (Homo sapiens, UniProt Q99873); test: Histone methyltransferase inhibition, PRMT1; assay type: biochemical
[1] = tested on: RD SMARCB1 wild-type cells; test: Cell cycle analysis (flow cytometry) and TUNEL assay, RD; assay type: cell-based; conditions: 1 μM, up to 14 days
Experimental: (§1) Cell cycle analysis and TUNEL assay were performed using a Guava® flow cytometer, following the manufacturer's protocol.

PRMT5/MEP50 = PRMT5/MEP50 (Homo sapiens, UniProt O14744); test: Histone methyltransferase inhibition, PRMT5/MEP50; assay type: biochemical
PRMT6 = PRMT6 (Homo sapiens, UniProt Q96LA8); test: Histone methyltransferase inhibition, PRMT6; assay type: biochemical; conditions: read-out: % Inhibition at 1 μM Compound A, mean and SD of duplicate experiments
SETD7 = SETD7 (Homo sapiens, UniProt Q8WTS6); test: Histone methyltransferase inhibition, SETD7; assay type: biochemical; conditions: read-out: % Inhibition at 1 μM Compound A, mean and SD of duplicate experiments
KARPAS-422 xenografts = test: KARPAS-422 xenograft in mice; assay type: in vivo, nude mice; conditions: for antitumor effect, intermittent dosing schedules: 7-day on/7-day off and 21 day on/7 day off
[2] = tested on: subcutaneous G401 xenografts
Experimental: ELISA: Histones were isolated from tumors as previously described (Daigle et al) and were prepared in equivalent concentrations (0.5 ng/ul for H3 and 4 ng/ul for H3K27Me3) in coating buffer (PBS with 0.05% BSA). […] The plates were sealed and incubated overnight at 4° C. The following day, plates were washed 3 times with 300 μL/well PBST (PBS with 0.05% Tween 20; 10×PBST, KPL #51-14-02) on a Bio Tek plate washer. Plates were blocked with 300 μL/well of diluent (PBS+2% BSA+0.05% Tween 20), incubated at room temperature for 2 hours, and washed 3 times with PBST. All antibodies were diluted in diluent. […] Plates were incubated for 90 minutes at room temperature and washed 3 times with PBST. […] Plates were washed 4 times with PBST. For detection, 100 μL/well of TMB substrate (BioFx Laboratories, #TMBS) was added and plates incubated in the dark at room temperature for 5 minutes. Reaction was stopped with 100 μL/well 1N H2SO4. Absorbance at 450 nm was read on SpectraMax M5 Microplate reader.
Xenograft study: All the procedures related to animal handling, care and the treatment in this study were performed according to the guidelines approved by the Institutional Animal Care and Use Committee (IACUC) of Shanghai Chemparner following the guidance of the Association for Assessment and Accreditation of Laboratory Animal Care (AAALAC). […] Animal body weights were measured every day during the first week, then twice weekly for the remainder of the study. Tumor size was measured twice weekly in two dimensions using a caliper, and the volume was expressed in mm^3. […] The remaining mice continued dosing for one more week, and from day 29, treatment was stopped and the mice were enrolled in a tumor growth delay study. Mice were observed as individuals until they reached the tumor weight endpoint (2000 mm^3) or until day 60 (whichever came first).

[3] = tested on: SMARCB1 regulated genes in RD control cells; test: Gene expression analysis (qPCR), RD cells; assay type: cell-based; conditions: 1 μM
Experimental: (§2) Gene expression was normalized to 18S (AB #Hs99999901_s1) and fold change was calculated using the ΔΔCt method. For the in vivo samples, the average Ct value+/−SD was determined for each dose group and fold change compared to vehicle dose group was calculated using the ΔΔCt method.

WHSC1L1 = WHSC1L1 (Homo sapiens, UniProt Q9BZ95); test: Histone methyltransferase inhibition, WHSC1L1; assay type: biochemical
WHSC1 = WHSC1 (Homo sapiens, UniProt O96028); test: Histone methyltransferase inhibition, WHSC1; assay type: biochemical
H3K27Me3 in G401 cells = conditions: 4 days, acid-extracted histones, immunoblot
Experimental: (§3) A204, G401, and G402 cells were cultured in McCoys 5a+10% FBS.
(§4) Cells were pelleted, washed with ice cold PBS, resuspended in ice cold RIPA buffer, and incubated on ice for 5 minutes. Lysates were sonicated 3× for 10 sec at 50% power, then incubated on ice for 10 minutes. Lysates were then centrifuged at max speed for 15 minutes at 4 degrees in a table top centrifuge. Clarified lysates were aliquoted to a fresh tube, and protein concentrations for WCL were determined by BCA assay (Pierce).

G401 cells = conditions: pretreated 7 days, replated on day 0
Experimental: SJCRH30 cells were cultured in RPMI+10% FBS. A204, G401, and G402 cells were cultured in McCoys 5a+10% FBS. KYM-1 cells were cultured in DMEM/Ham's F12+10% FBS.
Plates were read on Day 0, Day 4, and Day 7 using CellTiter-Glo® (Promega), with compound/media being replenished on Day 4. On Day 7, the 6-well plates were trypsinized, centrifuged, and resuspended in fresh media for counting by Vi-Cell. Cells from each treatment were replated at the original density in 96-well plates in triplicate. Cells were allowed to adhere to the plate overnight, and cells were treated as on Day 0. […] Averages of triplicates were used to plot proliferation over the timecourse, and calculate IC50 values.

EHMT1 = EHMT1 (Homo sapiens, UniProt Q9H9B1); test: Histone methyltransferase inhibition, EHMT1; assay type: biochemical
[4] = tested on: G402 SMARCB1-deleted cells; test: Cell morphology, G402 cells; assay type: cell-based; conditions: 1 μM, 14 days
[5] = Oral administration to rodents (bioavailability); assay type: in vivo; conditions: administered to rodents
[6] = tested on: WSU-DLCL2 Human Lymphoma Cells; test: Washout experiments, WSU-DLCL2 proliferation (LCC); assay type: cell-based
[7] = tested on: G401 SMARCB1-deleted cells; test: Cell cycle analysis (flow cytometry) and TUNEL assay, G401; assay type: cell-based; conditions: 1 μM, up to 14 days
Experimental: as §1

WSU-DLCL2 cells [8] = test: Cell cycle progression and apoptosis (TUNEL), WSU-DLCL2; assay type: cell-based, human
OCI-LY19 cells = conditions: OCI-LY19 (EZH2 wild type for residue Y641)
SMYD3 = SMYD3 (Homo sapiens, UniProt Q9H7B4); test: Histone methyltransferase inhibition, SMYD3; assay type: biochemical; conditions: read-out: % Inhibition at 1 μM Compound A, mean and SD of duplicate experiments
PRMT3 = PRMT3 (Homo sapiens, UniProt O60678); test: Histone methyltransferase inhibition, PRMT3; assay type: biochemical; conditions: read-out: % Inhibition at 1 μM Compound A, mean and SD of duplicate experiments
DOT1L = DOT1L (Homo sapiens, UniProt Q8TEK3); test: Histone methyltransferase inhibition, DOT1L; assay type: biochemical
CARM1 = CARM1 (Homo sapiens, UniProt Q86X55); test: Histone methyltransferase inhibition, CARM1; assay type: biochemical
WSU-DLCL2 cells [9] = conditions: with mouse plasma protein binding considered
[10] = tested on: SMARCB1 regulated genes in G401 cells; test: Gene expression analysis (qPCR), G401 cells; assay type: cell-based; conditions: 1 μM, up to 7 days, time-dependent
Experimental: as §2

EHMT2 = EHMT2 (Homo sapiens, UniProt Q96KQ7); test: Histone methyltransferase inhibition, EHMT2; assay type: biochemical
H3K27Me3 in RD cells = conditions: 4 days, acid-extracted histones, immunoblot
Experimental: as §3, §4

Pfeiffer cells = conditions: Pfeiffer (EZH2 A677G); 11-day proliferation
PRMT8 = PRMT8 (Homo sapiens, UniProt Q9NR22); test: Histone methyltransferase inhibition, PRMT8; assay type: biochemical
[11] = tested on: LNCAP prostate cancer cells; test: Cell growth inhibition in vitro, LNCAP; assay type: cell-based
[12] = tested on: ATRX mutant SCLC line NCI-H841; test: Response and morphology of ATRX mutant SCLC line NCI-H841 with Compound E; assay type: cell-based
[13] = tested on: SNF5 mutant cell line A204; test: Response of cell lines to Compound E (FIG. 2), A204; assay type: cell-based
[14] = tested on: ATRX mutant SCLC line SW1271; test: Response of ATRX mutant SCLC lines to Compound E, SW1271; assay type: cell-based
[15] = tested on: SNF5 mutant cell line G402; test: Response of cell lines to Compound E (FIG. 2), G402; assay type: cell-based
[16] = tested on: ATRX mutant SCLC line NCI-H446; test: Response of ATRX mutant SCLC lines to Compound E, NCI-H446; assay type: cell-based
[17] = tested on: G401 SNF mutant cell line; test: Soft agar growth, G401; assay type: cell-based; conditions: after 7 days
[18] = tested on: SNF5 mutant cell line G401; test: Response of cell lines to Compound E (FIG. 2), G401; assay type: cell-based
[19] = read-out: % Inhibition at 1 μM Compound A, mean and SD of duplicate experiments
[20] = 4-day Compound A, 11-day Washout
[21] = 7-day Compound A, 7-day Washout

Chain of WHSC1L1 (Q9BZ95 whole entry, species assumed): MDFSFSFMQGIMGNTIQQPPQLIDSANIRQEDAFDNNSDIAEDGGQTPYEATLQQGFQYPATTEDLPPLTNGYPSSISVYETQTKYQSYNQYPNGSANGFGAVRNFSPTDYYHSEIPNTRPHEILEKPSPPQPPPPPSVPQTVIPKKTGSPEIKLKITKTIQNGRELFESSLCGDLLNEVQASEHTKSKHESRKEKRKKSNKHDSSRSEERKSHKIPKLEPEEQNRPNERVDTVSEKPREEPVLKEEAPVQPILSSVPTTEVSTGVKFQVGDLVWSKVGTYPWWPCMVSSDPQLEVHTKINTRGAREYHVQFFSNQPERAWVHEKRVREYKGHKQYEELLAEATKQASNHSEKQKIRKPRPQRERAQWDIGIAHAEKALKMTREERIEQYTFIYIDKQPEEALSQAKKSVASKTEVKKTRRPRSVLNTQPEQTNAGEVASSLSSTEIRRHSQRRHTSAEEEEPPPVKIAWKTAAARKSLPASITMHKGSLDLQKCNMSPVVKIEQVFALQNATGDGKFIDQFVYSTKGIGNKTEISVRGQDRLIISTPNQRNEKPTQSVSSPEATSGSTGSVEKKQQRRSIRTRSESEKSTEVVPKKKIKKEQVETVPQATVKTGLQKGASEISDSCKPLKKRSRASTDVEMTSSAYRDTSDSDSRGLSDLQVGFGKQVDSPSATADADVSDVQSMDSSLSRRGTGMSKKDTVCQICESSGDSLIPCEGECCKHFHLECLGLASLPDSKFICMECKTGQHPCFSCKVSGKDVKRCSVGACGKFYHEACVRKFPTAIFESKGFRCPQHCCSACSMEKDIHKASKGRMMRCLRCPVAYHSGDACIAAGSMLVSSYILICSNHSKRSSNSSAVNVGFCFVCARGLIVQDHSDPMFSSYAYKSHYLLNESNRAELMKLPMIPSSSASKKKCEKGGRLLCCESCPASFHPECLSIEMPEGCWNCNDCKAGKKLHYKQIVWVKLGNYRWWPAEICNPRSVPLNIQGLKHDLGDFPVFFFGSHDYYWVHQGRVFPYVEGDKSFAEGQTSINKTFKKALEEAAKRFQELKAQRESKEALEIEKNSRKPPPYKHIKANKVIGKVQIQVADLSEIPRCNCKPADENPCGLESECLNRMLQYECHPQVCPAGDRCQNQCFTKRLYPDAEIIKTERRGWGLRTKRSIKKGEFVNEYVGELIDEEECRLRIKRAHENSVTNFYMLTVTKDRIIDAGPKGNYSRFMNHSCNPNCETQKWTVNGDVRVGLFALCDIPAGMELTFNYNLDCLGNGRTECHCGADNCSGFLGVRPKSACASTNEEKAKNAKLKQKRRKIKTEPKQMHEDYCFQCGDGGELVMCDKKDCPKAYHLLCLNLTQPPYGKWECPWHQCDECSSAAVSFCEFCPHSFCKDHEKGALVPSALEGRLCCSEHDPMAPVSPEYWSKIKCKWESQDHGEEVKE
Chain of PRMT8 (Q9NR22 whole entry, species assumed): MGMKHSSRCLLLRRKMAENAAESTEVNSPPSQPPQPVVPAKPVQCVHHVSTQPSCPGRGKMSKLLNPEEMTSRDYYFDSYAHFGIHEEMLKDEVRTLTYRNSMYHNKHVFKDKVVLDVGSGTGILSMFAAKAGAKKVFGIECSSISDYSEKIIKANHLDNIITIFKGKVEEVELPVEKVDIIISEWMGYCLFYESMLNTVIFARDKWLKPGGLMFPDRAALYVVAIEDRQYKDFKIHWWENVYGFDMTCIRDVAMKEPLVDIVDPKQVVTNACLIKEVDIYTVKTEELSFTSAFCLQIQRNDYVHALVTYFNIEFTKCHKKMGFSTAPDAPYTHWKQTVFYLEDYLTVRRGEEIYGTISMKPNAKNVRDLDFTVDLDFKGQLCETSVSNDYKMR
Chain of PRMT5/MEP50 (O14744 whole entry, species assumed): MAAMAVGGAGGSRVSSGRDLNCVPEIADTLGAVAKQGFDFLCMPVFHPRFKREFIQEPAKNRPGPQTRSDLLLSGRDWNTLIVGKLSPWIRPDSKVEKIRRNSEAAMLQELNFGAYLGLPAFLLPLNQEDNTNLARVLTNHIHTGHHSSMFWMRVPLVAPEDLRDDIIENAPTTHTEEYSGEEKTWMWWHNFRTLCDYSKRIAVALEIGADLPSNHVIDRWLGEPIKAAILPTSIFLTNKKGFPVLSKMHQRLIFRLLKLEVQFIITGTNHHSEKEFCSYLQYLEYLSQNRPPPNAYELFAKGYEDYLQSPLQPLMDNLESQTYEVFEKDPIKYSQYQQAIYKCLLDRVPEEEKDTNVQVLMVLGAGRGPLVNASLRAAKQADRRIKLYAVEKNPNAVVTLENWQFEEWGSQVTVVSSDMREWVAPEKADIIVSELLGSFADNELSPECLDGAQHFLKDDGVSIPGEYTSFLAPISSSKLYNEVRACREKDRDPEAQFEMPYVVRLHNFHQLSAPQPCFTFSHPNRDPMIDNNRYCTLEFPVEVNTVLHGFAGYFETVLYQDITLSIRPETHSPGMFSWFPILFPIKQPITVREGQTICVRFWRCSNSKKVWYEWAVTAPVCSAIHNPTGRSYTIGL
Chain of PRMT5/MEP50 (Q9BQA1 whole entry partner, species assumed): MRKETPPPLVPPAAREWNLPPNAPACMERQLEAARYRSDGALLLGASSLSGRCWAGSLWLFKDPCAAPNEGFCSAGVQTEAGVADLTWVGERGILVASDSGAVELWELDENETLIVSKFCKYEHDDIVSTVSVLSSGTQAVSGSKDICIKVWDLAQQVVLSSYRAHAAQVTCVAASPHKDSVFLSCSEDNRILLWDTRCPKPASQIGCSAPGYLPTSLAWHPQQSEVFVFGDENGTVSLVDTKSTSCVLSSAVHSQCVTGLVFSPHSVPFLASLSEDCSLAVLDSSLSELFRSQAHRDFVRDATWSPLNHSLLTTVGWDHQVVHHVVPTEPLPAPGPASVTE
Chain of DOT1L (Q8TEK3 whole entry, species assumed): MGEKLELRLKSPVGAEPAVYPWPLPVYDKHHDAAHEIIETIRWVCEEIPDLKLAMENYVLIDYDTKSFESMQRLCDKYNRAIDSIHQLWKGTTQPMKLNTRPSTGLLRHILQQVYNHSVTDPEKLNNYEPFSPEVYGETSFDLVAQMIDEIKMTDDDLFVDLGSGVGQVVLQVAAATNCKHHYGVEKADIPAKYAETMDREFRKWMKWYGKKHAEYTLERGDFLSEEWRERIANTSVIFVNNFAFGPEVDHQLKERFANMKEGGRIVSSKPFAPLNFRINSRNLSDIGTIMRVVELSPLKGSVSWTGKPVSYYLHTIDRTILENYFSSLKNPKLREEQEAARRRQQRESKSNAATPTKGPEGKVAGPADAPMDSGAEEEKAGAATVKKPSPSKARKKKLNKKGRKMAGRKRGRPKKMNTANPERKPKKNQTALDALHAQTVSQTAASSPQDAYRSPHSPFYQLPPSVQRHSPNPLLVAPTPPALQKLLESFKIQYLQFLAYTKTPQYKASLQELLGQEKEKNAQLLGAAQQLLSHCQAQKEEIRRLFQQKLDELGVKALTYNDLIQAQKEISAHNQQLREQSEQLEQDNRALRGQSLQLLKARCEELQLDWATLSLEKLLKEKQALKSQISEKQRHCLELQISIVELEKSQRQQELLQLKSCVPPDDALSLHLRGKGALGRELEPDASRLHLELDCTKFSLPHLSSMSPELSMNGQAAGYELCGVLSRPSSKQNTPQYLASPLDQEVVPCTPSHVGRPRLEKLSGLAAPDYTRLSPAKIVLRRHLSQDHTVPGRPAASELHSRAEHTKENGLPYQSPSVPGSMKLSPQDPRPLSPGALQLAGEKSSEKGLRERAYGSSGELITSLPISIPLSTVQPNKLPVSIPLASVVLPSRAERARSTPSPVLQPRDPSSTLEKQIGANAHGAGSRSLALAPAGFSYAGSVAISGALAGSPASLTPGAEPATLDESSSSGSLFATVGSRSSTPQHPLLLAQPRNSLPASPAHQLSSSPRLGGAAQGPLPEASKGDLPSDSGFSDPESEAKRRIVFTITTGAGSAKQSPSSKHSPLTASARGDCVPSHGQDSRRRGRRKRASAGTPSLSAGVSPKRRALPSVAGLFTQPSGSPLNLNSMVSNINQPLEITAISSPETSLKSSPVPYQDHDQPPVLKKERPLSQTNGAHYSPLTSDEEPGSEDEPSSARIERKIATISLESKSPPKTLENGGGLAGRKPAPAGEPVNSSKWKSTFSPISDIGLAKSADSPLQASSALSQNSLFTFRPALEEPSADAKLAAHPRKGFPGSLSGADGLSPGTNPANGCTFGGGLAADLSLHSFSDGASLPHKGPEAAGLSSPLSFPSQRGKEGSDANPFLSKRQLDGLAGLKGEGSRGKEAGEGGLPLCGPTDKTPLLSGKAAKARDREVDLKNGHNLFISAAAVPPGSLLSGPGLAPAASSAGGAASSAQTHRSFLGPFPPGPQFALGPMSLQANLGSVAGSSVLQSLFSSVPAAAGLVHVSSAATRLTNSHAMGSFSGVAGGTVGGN
Chain of PRMT1 (Q99873 whole entry, species assumed): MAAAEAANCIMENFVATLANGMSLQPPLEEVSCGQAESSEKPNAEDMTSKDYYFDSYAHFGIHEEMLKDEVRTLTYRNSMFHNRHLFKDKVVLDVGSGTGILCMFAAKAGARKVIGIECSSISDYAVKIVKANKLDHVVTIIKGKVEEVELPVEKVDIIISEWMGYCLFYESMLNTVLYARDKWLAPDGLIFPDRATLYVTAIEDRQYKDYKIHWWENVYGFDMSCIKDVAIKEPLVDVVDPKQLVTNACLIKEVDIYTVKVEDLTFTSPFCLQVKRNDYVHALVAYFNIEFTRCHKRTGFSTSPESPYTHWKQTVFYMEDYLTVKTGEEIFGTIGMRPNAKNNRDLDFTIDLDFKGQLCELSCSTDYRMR

Compound `CCN(c1cc(-c2ccc(CN3CCOCC3)cc2)cc(C(=O)NCc2c(C)cc(C)[nH]c2=O)c1C)C1CCOCC1` [Compound A, N-((4,6-dimethyl-2-oxo-1,2-dihydropyridin-3-yl)methyl)-5-(ethyl (tetrahydro-2H-pyran-4-yl)amino)-4-methyl-4′-(morpholinomethyl)-[1,1′-biphenyl]-3-carboxamide] has an IC50 (SMYD2; one experiment) greater than 50 µM, an inhibition at 1 µM (SMYD2; [19]) of 1 ± 2% and an IC50 (PRMT1; one experiment) greater than 50 µM. The inhibition at 1 µM (PRMT1; [19]) was 5 ± 4%, the “cell cycle and apoptosis compared to DMSO control” value [1] was “no changes in cell cycle or apoptosis” and the IC50 (PRMT5/MEP50; one experiment) was greater than 50 µM. The inhibition at 1 µM (PRMT5/MEP50; [19]) was 2 ± 6%, the inhibition at 1 µM (PRMT6) was 3 ± 3% and the inhibition at 1 µM (SETD7) was 4 ± 3%. The “antitumor effect, intermittent dosing schedules” value (KARPAS-422 xenografts; 90 mg/kg BID) was “tumor growth inhibition”, the “antitumor effect, intermittent dosing schedules” value (KARPAS-422 xenografts; 361 mg/kg BID) was “complete regressions” and the “tumor H3K27Me3 levels” value (KARPAS-422 xenografts; 7-day study, nude mice, BID and QD schedules) was “dose-dependent reduction of tumor H3K27Me3 levels”. For the same compound, the “tumor re-growth after cessation of dosing” value (KARPAS-422 xenografts; higher doses, up to 90 days after cessation of dosing) was “no re-growth”, the “tumor growth after the dosing period compared to vehicle” value ([2]; 125 mg/kg) was “significant tumor growth delay” and the “tumor growth after dosing stop compared to vehicle” value ([2]; 133 mg/kg) was “significant tumor growth delay”. For the same compound, the tumor re-growth ([2]; 250 or 500 mg/kg BID, 32 days after dose cessation) was “Re-growth was not observed”, the antitumor effect ([2]; 250 or 500 mg/kg twice daily (BID) for 21 to 28 days) was “practically eliminated” and the antitumor effect ([2]; 266 or 532 mg/kg BID for 28 days) was “eliminated”. The tumor re-growth ([2]; 266 or 532 mg/kg BID, study end, 32 days after dosing stop) was “re-growth was not observed”, the “plasma levels (systemic exposure)” value ([2]; 5 min before or 3 h after dosing on day 21, LC-MS/MS) was “dose-dependent increase in systemic exposure” and the “gene expression in G401 xenograft tumors” value ([2]; treated 21 days, qPCR) was “dose-dependent changes in the expression of CD133, PTPRK, DOCK4 and GLI1”. For the same compound, the “H3K27me3 in tumors (ELISA)” value ([2]; tumors harvested on day 21, maximum effect at 250 mg/kg) was “strong inhibition of H3K27me3”, the “expression of the SMARCB1 regulated genes” value [3] was “minimal effect on expression” and the IC50 (WHSC1L1; one experiment) was greater than 100 µM. It also gave an inhibition at 1 µM (WHSC1L1; [19]) of 9 ± 8%, an IC50 (WHSC1; one experiment) greater than 100 µM and an inhibition at 1 µM (WHSC1; [19]) of 8 ± 3%. For the same compound, the “specificity for inhibition of cellular histone methylation” value (H3K27Me3 in G401 cells) was “selective inhibition of cellular H3K27 methylation”, the “sensitivity in vitro (cell viability, CellTiter-Glo)” value (G401 cells) was “sensitive” and the IC50 (EHMT1; one experiment) was greater than 50 µM. The inhibition at 1 µM (EHMT1; [19]) was 6 ± 6%, the cell morphology [4] was “neuron-like morphology” and the oral bioavailability [5] was “excellent”. For the same compound, the “Day 11 LCC” value [6, 20] was 0.36 µM, the “Day 14 LCC” value [6, 20] was 0.42 µM and the “Day 11 LCC” value [6, 21] was 0.19 µM. For the same compound, the “Day 14 LCC” value [6, 21] was 0.075 µM, the “Day 11 LCC” value ([6]; No Washout) was 0.17 µM and the “Day 14 LCC” value ([6]; No Washout) was 0.11 µM. The “cell cycle (G1 arrest)” value [7] was “increase in the percentage of cells in G1 phase, and a concomitant decrease in S phase and G2/M phase after 7 days; also recorded: G1 arrest was observed as of day 7”, the “sub-G1 fraction and apoptotic cells (TUNEL assay)” value [7] was “increased in a time dependent manner; also recorded: apoptosis was induced as of day 11” and the sub-G1 fraction (WSU-DLCL2 cells [8]; 1 μM, 7 days) was “no apparent increase in the sub-G1 fraction”. The cell cycle progression (WSU-DLCL2 cells [8]; 1 μM, apparent after 2 days, maximum after 4 days) was “increase in the percentage of cells in G1 phase, and a decrease in the percentage of cells in S phase and G2/M phase”, the “fraction of apoptotic cells (TUNEL assay)” value (WSU-DLCL2 cells [8]; day 14 compared to vehicle) was “significantly increased” and the “growth over 11 days” value (OCI-LY19 cells) was “not significantly affected”. The inhibition at 1 µM (SMYD3) was 0%, the inhibition at 1 µM (PRMT3) was 2 ± 2% and the IC50 (DOT1L; one experiment) was greater than 50 µM. For the same compound, the inhibition at 1 µM (DOT1L; [19]) was 2 ± 8%, the IC50 (CARM1; mean of duplicate experiments) was greater than 50 µM and the inhibition at 1 µM (CARM1; read-out: % Inhibition at 1 μM Compound A, mean and standard deviation of duplicate experiments) was 5 ± 3%. For the same compound, the “LCC for WSU-DLCL2 cells as plasma level” value (WSU-DLCL2 cells [9]) was 1652 ng/mL, the “expression of CDKN1A, CDKN2A and BIN1” value [10] was “up-regulated cell cycle inhibitors CDKN1A and CDKN2A and tumor suppressor BIN1” and the “expression of neuronal differentiation genes CD133, DOCK4, PTPRK” value [10] was “strongly induced expression of CD133, DOCK4 and PTPRK”. For the same compound, the IC50 (EHMT2; one experiment) was greater than 50 µM, the inhibition at 1 µM (EHMT2; [19]) was 7 ± 3% and the “specificity for inhibition of cellular histone methylation” value (H3K27Me3 in RD cells) was “selective inhibition of cellular H3K27 methylation”. For the same compound, the “increase in sensitivity over the Y641 mutant cell lines, measured by IC50 value” (Pfeiffer cells) was 20 fold, the “increase in sensitivity over the Y641 mutant cell lines, measured by LCC” value (Pfeiffer cells) was 300 fold and the IC50 (PRMT8; one experiment) was greater than 50 µM. It also gave an inhibition at 1 µM (PRMT8; [19]) of 7 ± 3%.
For `CCN(c1cc(-c2ccc(CN3CCOCC3)cc2)cc(C(=O)NCc2c(C)cc(C)[nH]c2=O)c1C)[C@H]1CC[C@H](N(C)C)CC1` [Compound E, N-((4,6-dimethyl-2-oxo-1,2-dihydropyridin-3-yl)methyl)-5-(((1r,4r)-4-(dimethylamino)cyclohexyl)(ethyl)amino)-4-methyl-4′-(morpholinomethyl)-[1,1′-biphenyl]-3-carboxamide], the cell growth inhibition [11] was “dose-dependent cell growth inhibition”, the response [12] was “responding” and the cell morphology ([12]; 4.1E-02 uM or 3.3 uM) was “changes morphology”. The “response compared to wild type cell lines RD and SJCRH30” value [13] was “selectively respond”, the response [14] was “responding” and the “response compared to wild type cell lines RD and SJCRH30” value [15] was “selectively respond”. For the same compound, the response [16] was “responding”, the “response in soft agar compared to wild type cells RD” value [17] was “responding” and the “response compared to wild type cell lines RD and SJCRH30” value [18] was “selectively respond”.
